These results are taken from patent publication US5631401A, “Inhibitors of protein farnesyltransferase and squalene synthase” (Abbott Laboratories, priority 1995, dated 1997).

This experiment deals with T1, Rat brain protein farnesyltransferase (Rattus norvegicus, UniProt Q02293+Q04631).
T1 construct: The enzyme was purified according to Reiss, Y., et al., Cell, 62: 81-88 (1990), utilizing steps one through three; from tissue; host or cells: rat brain
Description: In vitro inhibition of protein farnesyltransferase (biotin-lamin substrate, scintillation proximity assay). Format: biochemical. The settings on record: for inhibition at 1 µM: 1 μM (footnote *), read-out: % Inhibition at 1 μM (protein farnesyltransferase, values marked *); for inhibition at 10 µM: compared to uninhibited control. The procedure:
In vitro inhibition of protein farnesyltransferase may be measured by the following procedure. (Procedures for determination of the inhibition of farnesylation of the oncogene protein Ras are described by Goldstein, et al., J. Biol. Chem., 266: 15575-15578 (1991) and by Singh in U.S. Pat. No. 5,245,061 both of which are incorporated herein by reference.)
Rat brain protein farnesyltransferase activity was measured using the biotin-lamin substrate (which is known to undergo farnesylation in a manner analogous to Ras protein) and radioactive farnesyl diphosphate provided by Amersham Life Science in their commercial scintillation proximity assay kit for the determination of farnesyltransferase. The enzyme was purified according to Reiss, Y., et al., Cell, 62: 81-88 (1990), utilizing steps one through three. The specific activity of the enzyme was approximately 10 nmol substrate farnesylated/mg enzyme/hour. […]

Consider `C[C@H](CCCc1ccccc1)CN(Cc1ccccc1)C(=O)[C@H]1[C@H](C(=O)O)[C@H](C(=O)N(Cc2ccccc2)C[C@H](C)CCCc2ccccc2)[C@H]1C(=O)O` [Example 85, (1α,2β,3β,4α)-1,3-Di[N-benzyl-N-((2R)-5-phenyl-2-methylpentyl)aminocarbonyl]cyclobutane-2,4-dicarboxylic acid], for which the inhibition at 1 µM is 58%.

Consider `O=C(O)[C@H]1[C@H](C(=O)N2CC=C(c3ccc(Oc4ccccc4)cc3)CC2)[C@H](C(=O)O)[C@H]1C(=O)N1CC=C(c2ccc(Oc3ccccc3)cc2)CC1` [Example 92, (1α,2α,3β,4β)-1,3-Di[4-(4-phenoxyphenyl)-1,2,3,6-tetrahydropyridin-1-ylcarbonyl]cyclobutane-2,4-dicarboxylic acid], for which the inhibition at 1 µM turned out to be 45%.

`CCCN(Cc1ccc(Nc2ccccc2)cc1)C(=O)C1C(C(=O)O)C(C(=O)N(CCC)Cc2ccc(Nc3ccccc3)cc2)C1C(=O)O` (stereo not drawn) [Example 62, (1α,2β,3β,4α)-1,3-Di[N-propyl-N-(4-phenylaminobenzyl)aminocarbonyl]cyclobutane-2,4-dicarboxylic acid] gave an inhibition at 10 µM of 69%.

Molecule `COc1ccc2c(c1)CCN(C(=O)C1C(C(=O)O)C(C(=O)N3CCc4cc(OC)ccc4C3)C1C(=O)O)C2` (stereo not drawn) [Example 49, (1α,2β,3β,4α)-1,3-Di[6-methoxy-1,2,3,4-tetrahydroisoquinolin-2-ylcarbonyl]cyclobutane-2,4-dicarboxylic acid] displayed an inhibition at 10 µM of 23%.

On to `O=C(O)[C@H]1[C@H](C(=O)OCc2ccc(Oc3ccccc3)cc2)[C@H](C(=O)O)[C@H]1C(=O)OCc1ccc(Oc2ccccc2)cc1` [Example 36, (1α,2β,3β,4α)-1,3-Di[4-phenoxybenzyloxycarbonyl]cyclobutane-2,4-dicarboxylic acid], for which the inhibition at 10 µM turned out to be 24%.

`CCCN(CCCCOc1ccccc1)C(=O)[C@H]1[C@H](C(=O)O)[C@H](C(=O)N(CCC)CCCCOc2ccccc2)[C@H]1C(=O)O` [Example 39, (1α,2β,3β,4α)-1,3-Di[N-propyl-N-(4-phenoxybutyl)aminocarbonyl]cyclobutane-2,4-dicarboxylic acid]: at 10 µM the inhibition was 66%.

Consider `CCCN(Cc1ccc(Oc2ccc3c(c2)OCO3)cc1)C(=O)C1C(C(=O)O)C(C(=O)N(CCC)Cc2ccc(Oc3ccc4c(c3)OCO4)cc2)C1C(=O)O` (stereo not drawn) [Example 48, (1α,2β,3β,4α)-1,3-Di[N-propyl-N-(4-(3,4-methylenedioxyphenoxy)benzyl)aminocarbonyl]cyclobutane-2,4-dicarboxylic acid], for which the inhibition at 10 µM is 61%.

For `O=C(O)[C@H]1[C@H](C(=O)N(Cc2ccc(Oc3ccccc3)cc2)Cc2ccc3ccccc3c2)[C@H](C(=O)O)[C@H]1C(=O)N(Cc1ccc(Oc2ccccc2)cc1)Cc1ccc2ccccc2c1` [Example 81, (1α,2β,3β,4α)-1,3-Di [N-(4-phenoxybenzyl)-N-(2-methylnaphthyl)aminocarbonyl]cyclobutane-2,4-dicarboxylic acid], the inhibition at 1 µM was 62%.

Consider `CCCN(CC=C=Cc1ccccc1)C(=O)C1C(C(=O)O)C(C(=O)N(CC=C=Cc2ccccc2)CCC)C1C(=O)O` (stereo not drawn) [Example 60, (1α,2β,3β,4α)-1,3-Di[N-propyl-N-(4-phenyl-2,3-butadien-1-yl)aminocarbonyl]cyclobutane-2,4-dicarboxylic acid], for which the inhibition at 1 µM worked out at 23%.

Consider `CCCN(Cc1ccc(Oc2ccccc2C)cc1)C(=O)C1C(C(=O)O)C(C(=O)N(CCC)Cc2ccc(Oc3ccccc3C)cc2)C1C(=O)O` (stereo not drawn) [Example 50, (1α,2β,3β,4α)-1,3-Di[N-propyl-N-(4-(2-methylphenoxy)benzyl)aminocarbonyl]cyclobutane-2,4-dicarboxylic acid], for which the inhibition at 10 µM was 35%.

`CCCN(Cc1ccc(Oc2ccccc2)cc1)C(=O)[C@H]1[C@H](C(=O)O)[C@H](C(=O)N(C)CC/C=C(\C)CCC=C(C)C)[C@H]1C(=O)O` (relative stereo) [Example 41, (1α,2β,3β,4α)-1-[N-Propyl-N-(4-phenoxybenzyl)aminocarbonyl]-3-[N-methyl-N-(homogeranyl)aminocarbonyl]cyclobutane-2,4-dicarboxylic acid] had an inhibition at 10 µM of 63%.

`CC(=O)OC(CCCN(Cc1ccccc1)C(=O)C1C(C(=O)O)C(C(=O)N(CCCC(OC(C)=O)C(C)Cc2ccccc2)Cc2ccccc2)C1C(=O)O)C(C)Cc1ccccc1` (stereo not drawn) [Example 84, (1α,2β,3β,4α)-1,3-Di [N-benzyl-N-{syn-(4-acetoxy-5-methyl) -6-phenylhexyl}aminocarbonyl]cyclobutane-2,4-dicarboxylic acid]: the inhibition at 1 µM is 93%.

As to `C[C@H](C/C=C/c1ccccc1)CN(Cc1ccccc1)C(=O)[C@H]1[C@H](C(=O)O)[C@H](C(=O)N(Cc2ccccc2)C[C@H](C)C/C=C/c2ccccc2)[C@H]1C(=O)O` [Example 86, (1α,2β,3β,4α)-1,3-Di [N-benzyl-N-{(E)-(2R)-2-methyl-5-phenyl-4-pentenyl}aminocarbonyl]cyclobutane-2,4-dicarboxylic acid], the inhibition at 1 µM is 61%.

Regarding `O=C(O)[C@H]1[C@H](C(=O)N(CCO)Cc2ccc(Oc3ccccc3)cc2)[C@H](C(=O)O)[C@H]1C(=O)N(CCO)Cc1ccc(Oc2ccccc2)cc1` [Example 74, (1α,2β,3β,4α)-1,3-Di[N-(2-hydroxyethyl)-N-(4-phenoxybenzyl)aminocarbonyl]cyclobutane-2,4-dicarboxylic acid], the inhibition at 1 µM turned out to be 22%.

In turn, `O=C(O)[C@H]1[C@H](C(=O)N(Cc2ccc(Oc3ccccc3)cc2)Cc2ccc3oc4ccccc4c3c2)[C@H](C(=O)O)[C@H]1C(=O)N(Cc1ccc(Oc2ccccc2)cc1)Cc1ccc2oc3ccccc3c2c1` [Example 95, (1α,2β,3β,4α)-1,3-Di[N-(dibenzofuran-2-ylmethyl)-N-(4-phenoxybenzyl)aminocarbonyl]cyclobutane-2,4-dicarboxylic acid] gave an inhibition at 10 µM of 55%.

In the case of `CCCN(C[C@H](C)CCCc1ccccc1)C(=O)[C@H]1[C@H](C(=O)O)[C@H](C(=O)N(CCC)C[C@H](C)CCCc2ccccc2)[C@H]1C(=O)O` [Example 82, (1α,2β,3β,4α)-1,3-Di [N-((2R)-2-methyl-5-phenylpentyl)-N-(n-propyl)aminocarbonyl]cyclobutane-2,4-dicarboxylic acid], the inhibition at 1 µM came to 21%.

Take `O=C(O)[C@H]1[C@H](C(=O)N2CCCC(c3ccccc3)C2)[C@H](C(=O)O)[C@H]1C(=O)N1CCCC(c2ccccc2)C1` (relative stereo) [Example 83, (1α,2β,3β,4α)-1,3-Di [(3-phenylpiperidin-1-yl)carbonyl]cyclobutane-2,4-dicarboxylic acid]: the inhibition at 10 µM was found to be 37%.

`CCCN(Cc1ccc(Cn2cccc2)cc1)C(=O)C1C(C(=O)O)C(C(=O)N(CCC)Cc2ccc(Cn3cccc3)cc2)C1C(=O)O` (stereo not drawn) [Example 56, (1α,2β,3β,4α)-1,3-Di[N-propyl-N-(4-(pyrrol-1-ylmethyl)benzyl)aminocarbonyl]cyclobutane-2,4-dicarboxylic acid] gave an inhibition at 10 µM of 78%.

In the case of `CCCN(Cc1ccc(OC2CCCCC2)cc1)C(=O)[C@H]1[C@H](C(=O)O)[C@H](C(=O)N(CCC)Cc2ccc(OC3CCCCC3)cc2)[C@H]1C(=O)O` [Example 37, (1α,2β,3β,4α)-1,3-Di[N-propyl-N-(4-cyclohexyloxybenzyl)aminocarbonyl]cyclobutane-2,4-dicarboxylic acid], the inhibition at 10 µM was determined as 22%.

Turning to `CCCN(Cc1ccc(Oc2nccs2)cc1)C(=O)C1C(C(=O)O)C(C(=O)N(CCC)Cc2ccc(Oc3nccs3)cc2)C1C(=O)O` (centres unmarked) [Example 55], the inhibition at 1 µM worked out at 22%.

For the molecule `C[C@H](c1ccccc1)N(Cc1ccc(Oc2ccccc2)cc1)C(=O)[C@H]1[C@H](C(=O)O)[C@H](C(=O)N(Cc2ccc(Oc3ccccc3)cc2)[C@H](C)c2ccccc2)[C@H]1C(=O)O` [Example 90], the inhibition at 1 µM came out at 66%.

Turning to `CCCN(Cc1ccc(Oc2ccccc2)o1)C(=O)C1C(C(=O)O)C(C(=O)N(CCC)Cc2ccc(Oc3ccccc3)o2)C1C(=O)O` (stereo not drawn) [Example 52, (1α,2β,3β,4α)-1,3-Di[N-propyl-N-(5-phenoxyfurfuryl)aminocarbonyl]cyclobutane-2,4-dicarboxylic acid], the inhibition at 10 µM is 51%.

The molecule `CCCN(Cc1ccc(Oc2ccccc2)cc1)C(=O)C1C(C(=O)O)C(C(=O)N(CCC)Cc2ccc(Oc3ccccc3)cc2)C1C(=O)O` (stereo not drawn) [Example 47, (1α,2β,3β,4α)-1,3-Di[N-propyl-N-(4-phenoxybenzyl)aminocarbonyl]cyclobutane-2,4-dicarboxylic acid] yielded an inhibition at 10 µM of 50%.

For the molecule `CCCN(CC#CCc1ccccc1)C(=O)[C@H]1[C@H](C(=O)O)[C@H](C(=O)N(CC#CCc2ccccc2)CCC)[C@H]1C(=O)O` [Example 61, (1α,2β,3β,4α)-1,3-Di{N-propyl-N-(4-phenylbut-2-yn-1-yl)aminocarbonyl}cyclobutane-2,4-dicarboxylic acid], the inhibition at 10 µM was 73%.

`CCCN(CCCCCc1ccccc1)C(=O)[C@H]1[C@H](C(=O)O)[C@H](C(=O)N(CCC)CCCCCc2ccccc2)[C@H]1C(=O)O` [Example 38, (1α,2β,3β,4α)-1,3-Di[N-propyl-N-(5-phenylpentyl)aminocarbonyl]cyclobutane-2,4-dicarboxylic acid] returned an inhibition at 10 µM of 85%.

In the case of `C[C@H](c1cccc2ccccc12)N(Cc1ccc(Oc2ccccc2)cc1)C(=O)[C@H]1[C@H](C(=O)O)[C@H](C(=O)N(Cc2ccc(Oc3ccccc3)cc2)[C@H](C)c2cccc3ccccc23)[C@H]1C(=O)O` [Example 96, (1α,2β,3β,4α)-1,3-Di[N-((2R)-2-(1-naphthyl)eth-2-yl) -N-(4-phenoxybenzyl)aminocarbonyl]cyclobutane-2,4-dicarboxylic acid], the inhibition at 1 µM came to 71%.
